Earlier results in patent US20200306268A1, “VITAMIN COMPOSITION” (Tempus Bio Technologies LLC, priority 2019, published 2020).

In the case of `C=C1CC[C@H](O)C/C1=C/C=C1\CCC[C@]2(C)[C@@H]([C@H](C)CCCC(C)C)CC[C@@H]12` [vitamin D3, (3β,5Z,7E)-9,10-secocholesta-5,7,10(19)-trien-3-ol], the “solubility in MCT oil” value (MCT oil) is given as “very soluble” and the solubility in water (water) is given as “not soluble”.
